# Test system: Malassezia pachydermatis
# Assay: MIC, microdilution broth method
# Format: cell-based
# Protocol: Six clinical isolates from dog skin (n=5) and cats (n=1) which had been sent to EnvA (mycology laboratory of BioPôle Alfort) for mycological culture. The isolates, collected in March 2016, were identified as belonging to the species Malassezia pachydermatis. They were maintained by regular transplanting on medium of Sabouraud. Isolates are subcultured 2 to 3 days prior to testing sensitivity.
# A stock solution of Oxyclozanide at 1600 μg/mL is prepared in DMSO. The stock solution is then diluted in DMSO to obtain a concentration range of 3.125 μg/ml to 800 μg/ml. A 1/50 dilution of this range and of the stock solution is then carried out in ultrapure water so as to obtain a concentration range of 0.0625 μg/ml to 32 μg/ml and containing 2% of DMSO. 50 μl of these solutions are deposited in wells of a microplate and then 50 μl of inoculum calibrated at 10^6 CFU/ml in Sabouraud/Tween 40 (2%) are added. A range of tested concentrations ranges from 0.0312 μg/mL to 16 μg/mL. The final concentration of DMSO in contact with the inoculum is 1%. The same dilution and seeding protocol was followed with a stock solution of amphotericin B at 1600 μg/ml. A “placebo” (or yeast growth control) column is systematically included in the plates. The plates are incubated at 37 ° C. The reading is done at 24 and 48 h. Several trials were conducted and protocol adjustments were required. In particular, the concentration of the inoculum had to be reduced for antifungal activity to be observed.
compound,measurement,setting,value
"C[C@@H]1[C@H](O)[C@@H](C)/C=C/C=C/C=C/C=C/C=C/C=C/C=C/[C@H](O[C@@H]2O[C@H](C)[C@@H](O)[C@H](N)[C@@H]2O)C[C@@H]2O[C@](O)(C[C@@H](O)C[C@@H](O)[C@H](O)CC[C@@H](O)C[C@@H](O)CC(=O)O[C@H]1C)C[C@H](O)[C@H]2C(=O)O [Amphoterine B, amphotericin B]",MIC,"Isolate 1, Assay 1, 10^6 CFU/ml",2 µg/mL
same,MIC,"Isolate 1, Assay 2, 10^6 CFU/ml",4 µg/mL
same,MIC,"Isolate 2, Assay 1, 10^6 CFU/ml",2 µg/mL
same,MIC,"Isolate 2, Assay 2, 10^6 CFU/ml",2 µg/mL
same,MIC,"Isolate 3, Assay 1, 10^6 CFU/ml",4 µg/mL
same,MIC,"Isolate 3, Assay 2, 10^6 CFU/ml",8 µg/mL
same,MIC,"Isolate 4, Assay 1, 10^6 CFU/ml",4 µg/mL
same,MIC,"Isolate 4, Assay 2, 10^6 CFU/ml",4 µg/mL
same,MIC,"Isolate 5, Assay 1, 10^6 CFU/ml",4 µg/mL
same,MIC,"Isolate 5, Assay 2, 10^6 CFU/ml",4 µg/mL
same,MIC,"Isolate 6, Assay 1, 10^6 CFU/ml",4 µg/mL
same,MIC,"Isolate 6, Assay 2, 10^6 CFU/ml",8 µg/mL

# — US11331289B2, “Antimicrobial composition” (priority 2017, dated 2022)
